Patent US10464946B2, “Crystalline forms of thienopyrimidine compound” (HANMI PHARM. CO., LTD., priority 2015, dated 2019)

How the values were obtained:
[1] = Dynamic vapor sorption (DVS) hygroscopicity; type: physicochemical; conditions: relative humidity of 10% to 90%; for stability from the hygroscopic aspect: expected from the DVS result
Experimental: Dynamic vapor sorption (DVS) analysis was performed in a DVS advantage (Surface measurement system, United Kingdom) analyzer at 25° C. with a relative humidity of 0% to 90%. A sample in an amount of 10 mg was placed into a wire-mesh vapor sorption balance pan and then attached to a DVS advantage dynamic vapor sorption balance via surface measurement systems. Until a stable weight was achieved (99.5% completion of steps), the sample was applied to a ramping profile with a relative humidity of 10% to 90% with a 10% increase of the sample while maintaining the sample in each step. Upon completion of the sorption cycle, the sample was dried using the same process while maintaining a relative humidity of […]. The changes in the sample weight during the adsorption/desorption cycle (repeated 3 times) were recorded and the hygroscopicity of the sample was measured.

[2] = Storage stability under long-term and accelerated conditions; type: physicochemical; conditions: for stability under a long-term storage condition: temperature of 25° C. and relative humidity of 60%; for stability under an accelerated condition: temperature of 40° C. and relative humidity of 75%
Experimental: High performance liquid chromatography (HPLC) analysis was performed for the purposes of analyzing purity and contents such as a stability test, etc., using an Agilent 1100/1200 series HPLC Systems (Agilent, USA) analyzer, and the conditions used for HPLC were as follows.

SMILES	stability from the hygroscopic aspect [1]	water content / hygroscopic level in the DVS ([1]; 25° C.)	stability under a long-term storage condition [2]	stability under an accelerated condition [2]
C=CC(=O)Nc1cccc(Oc2nc(Nc3ccc(N4CCN(C)CC4)cc3)nc3ccsc23)c1 [Comparative Example 1, N-(3-(2-(4-(4-methylpiperazin-1-yl)phenylamino)thieno[3,2-d]pyrimidin-4-yloxy)phenyl)acrylamide, reference compound]	unstable	–	–	–
C=CC(=O)Nc1cccc(Oc2nc(Nc3ccc(N4CCN(C)CC4)cc3)nc3ccsc23)c1 [Example 1, N-(3-(2-(4-(4-methylpiperazin-1-yl)phenylamino)thieno[3,2-d]pyrimidin-4-yloxy)phenyl)acrylamide]	stable	about 1.5%	–	–
C=CC(=O)Nc1cccc(Oc2nc(Nc3ccc(N4CCN(C)CC4)cc3)nc3ccsc23)c1 [Example 3, N-(3-(2-(4-(4-methylpiperazin-1-yl)phenylamino)thieno[3,2-d]pyrimidin-4-yloxy)phenyl)acrylamide]	very stable	–	very stable	very stable
C=CC(=O)Nc1cccc(Oc2nc(Nc3ccc(N4CCN(C)CC4)cc3)nc3ccsc23)c1 [Example 4, N-(3-(2-(4-(4-methylpiperazin-1-yl)phenylamino)thieno[3,2-d]pyrimidin-4-yloxy)phenyl)acrylamide]	very stable	–	very stable	very stable
